From BindingDB's records for doi:10.7270/Q2BC3WZZ (Pcmd, 2008)
pIC50: −log10 of the molar value.

Molecular target: T1, Coagulation factor XII (Homo sapiens, UniProt P00748)
T1 sequence (P00748 whole entry): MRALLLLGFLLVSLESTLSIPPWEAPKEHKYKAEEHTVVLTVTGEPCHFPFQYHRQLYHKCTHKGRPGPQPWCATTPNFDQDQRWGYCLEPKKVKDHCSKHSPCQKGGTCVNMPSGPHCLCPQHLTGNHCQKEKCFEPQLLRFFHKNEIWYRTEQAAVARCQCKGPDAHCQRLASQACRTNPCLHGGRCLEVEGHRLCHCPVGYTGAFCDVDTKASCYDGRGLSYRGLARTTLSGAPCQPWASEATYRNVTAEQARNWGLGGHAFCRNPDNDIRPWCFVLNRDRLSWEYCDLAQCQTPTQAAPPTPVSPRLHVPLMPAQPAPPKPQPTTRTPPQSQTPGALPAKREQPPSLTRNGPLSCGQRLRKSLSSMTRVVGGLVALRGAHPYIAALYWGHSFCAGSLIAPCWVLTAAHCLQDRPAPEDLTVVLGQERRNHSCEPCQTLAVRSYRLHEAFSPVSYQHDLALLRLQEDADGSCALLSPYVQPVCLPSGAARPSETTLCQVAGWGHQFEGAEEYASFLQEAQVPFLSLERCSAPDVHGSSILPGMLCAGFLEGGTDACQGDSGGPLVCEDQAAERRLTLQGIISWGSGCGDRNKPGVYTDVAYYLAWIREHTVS
Experiment: FXIIa inhibition potency, concentration-response curve, biochemical assay (AID 716)

SMILES | pIC50
CC(C)C1c2c(-c3cccs3)n[nH]c2OC(=N)C1C#N (configuration not stated) [SMR000014022] | < 4.30
C=CCOC(=O)C1=C(C)N=C(C)C(C(=O)OCC=C)C1c1ccc(O)cc1 (configuration not stated) [SMR000107649] | < 4.30
